The source of these data is the OPERA property sets (Mansouri et al. 2018).

Structures are written as SMILES.

`Brc1ccc(Oc2c(Br)cc(Br)cc2Br)c(Br)c1` gave a logP of 7.24. As for `CC(O)C(C)C(C)O` (stereo not drawn), the boiling point is 212 °C. `CCCCOc1ccc(/N=N/c2ccc(N)nc2N)cn1` came in with a melting point of 129 °C. Still for that read-out and setting: then `CCCCC(=O)c1ccc(N)cc1`, with 74.5 °C; and `CCN1C(=O)OC(C)(C)C1=O`, with 76.5 °C.

Turning to `CC(C)OC(=O)Nc1cccc(Cl)c1`, the log10 Koc (L/kg) was 2.6, the log10 vapour pressure (mmHg) is -3.74, the melting point amounted to 41 °C and the ready biodegradability entry was “readily biodegradable”. On to `CC(=O)C(C)(C)O`, for which the boiling point was determined as 140 °C and the log10 vapour pressure (mmHg) amounted to 0.792. The molecule `O=[N+]([O-])CCc1ccccc1` yielded a boiling point of 250 °C and a melting point of -23 °C. For `O=C(O)Cn1c(=O)sc2cccc(Cl)c21`, the log10 Koc (L/kg) was 1.52, the log10 vapour pressure (mmHg) was -9.12 and the melting point was found to be 193 °C. As for `NCCNCCNCCN`, the boiling point worked out at 266 °C, the melting point came to 12 °C and the ready biodegradability entry was “not readily biodegradable”. For `CN1CCC(O)CC1`, the boiling point was determined as 200 °C and the melting point stood at 29 °C. The molecule `CC(C)CCC[C@H](C)O` came in with a boiling point of 174 °C and a melting point of -105 °C. Molecule `CC(=O)c1cc(Cl)ccc1Cl` yielded a melting point of 12 °C.

In turn, `CC(COc1ccc(C(C)(C)C)cc1)OS(=O)OCCCl` (stereo not drawn) returned a melting point of -31.7 °C. For `C=CCSC#N`, the boiling point came to 161 °C. On to `C=C(C)c1ccc(C)cc1`, for which the boiling point came to 185 °C and the melting point is -20 °C. For `C[C@@H]1CC[C@H](O)C1`, the boiling point was determined as 148 °C. In turn, `NS(=O)(=O)c1cc2c(cc1Cl)NC(CC1CCCC1)NS2(=O)=O` (stereo not drawn) gave a melting point of 238 °C. Turning to `O=[N+]([O-])c1ccccc1C(F)(F)F`, the boiling point was found to be 217 °C and the melting point amounted to 32.5 °C.

`CCCC(C)C(CC)CC` (stereo not drawn) came in with a boiling point of 165 °C. `c1ccc2ocnc2c1` gave a boiling point of 182 °C and a melting point of 31 °C. Consider `Cc1cccc(N=Nc2ccc(N(C)C)cc2)c1`, for which the melting point was 138 °C. Regarding `Brc1ccc(Br)c(Br)c1`, the boiling point came to 275 °C and the melting point is 44.5 °C. The molecule `O=C1c2ccccc2C(=O)C1(CN1CCOCC1)c1ccccc1` registered a melting point of 88 °C. Consider `O=C(O)c1ccccc1Cl`, for which the boiling point amounted to 287 °C, the log10 vapour pressure (mmHg) is -3.18, the melting point was 140 °C and the ready biodegradability entry is “not readily biodegradable”.

With `CCOC(CC)OCC`, the boiling point is 123 °C. As to `O=C(O)CCCCCCCCCCCC(=O)O`, the melting point amounted to 111 °C. In turn, `N#Cc1c[nH]cc1-c1cccc2c1OC(F)(F)O2` displayed a log10 vapour pressure (mmHg) of -8.53 and a melting point of 200 °C. With `CC(C)(C#N)C#N`, the boiling point came out at 170 °C, the log10 vapour pressure (mmHg) was 0.16 and the melting point amounted to 31.5 °C. For `CC1C(=O)CC2CC1C2(C)C` (stereo not drawn), the boiling point was found to be 212 °C. On the same count and under the same terms, then `CN(C)C#N`, with 164 °C. In turn, `CCCCCCCF` returned a boiling point of 118 °C, a log10 vapour pressure (mmHg) of 1.26 and a melting point of -73 °C. Molecule `COc1ccc(C(=O)c2cccc(C)c2)cc1C` gave a melting point of 62.3 °C.

For `CCCCCCCCCCCCCCCCCC(=O)OCCC(C)C`, the melting point is 25.5 °C. As to `C1C2C3C2C2C1C32` (stereo not drawn), the boiling point turned out to be 112 °C. Molecule `CCCOc1ccc([N+](=O)[O-])cc1NC(C)=O` yielded a melting point of 102 °C.

For `O=[N+]([O-])c1c(Cl)cccc1-c1c[nH]cc1Cl`, the melting point was determined as 124 °C.

On to `C[C@H]1CC[C@@]2(O)C(C)(C)[C@@H]3CC[C@@]2(C)[C@H]1C3`, for which the melting point worked out at 56 °C. Take `COP(=O)(NC(C)=O)SC` (stereo not drawn): the log10 Koc (L/kg) came out at 0.3, the log10 vapour pressure (mmHg) is -5.77, the melting point is 88 °C and the ready biodegradability entry is recorded as “readily biodegradable”. On to `CCOC(=O)C1(c2cccc(O)c2)CCN(C)CC1`, for which the melting point stood at 110 °C. `N=C(N)N` returned a melting point of 50 °C. Same read-out and setting: then `CCCCCCCOc1ccc(O)cc1`, with 61.5 °C. `C=Cc1ccccc1CC`: the boiling point is 187 °C, the melting point was -75.5 °C and the ready biodegradability result is on record as “not readily biodegradable”. In turn, `CCCC/C=C/CCCCC` returned a boiling point of 192 °C and a melting point of -83.8 °C. As for `ClCCc1ccccc1`, the ready biodegradability entry was “not readily biodegradable”. For the molecule `O=S(=O)(O)c1ccc(-c2ccc(S(=O)(=O)O)cc2)cc1`, the melting point came to 72.5 °C. Molecule `O=C(CCc1ccc(O)cc1)c1c(O)cc(O)cc1O[C@@H]1O[C@H](CO)[C@@H](O)[C@H](O)[C@H]1O` returned a melting point of 110 °C. Regarding `CC(C)C(C)CCC(C)C1CCC2=C3CCC4CC(O)CCC4(C)C3CCC21C` (stereo not drawn), the melting point turned out to be 131 °C. As for `C/C=C(\C)C(=O)OCC`, the boiling point stood at 156 °C. `CCCC(C)CCN` (stereo not drawn) yielded a boiling point of 149 °C. Molecule `CN(C)c1cccc(O)c1` came in with a boiling point of 266 °C and a melting point of 86 °C. As for `CCOc1ccccc1C(N)=O`, the melting point stood at 133 °C. The molecule `C=CCCCCC` came in with a boiling point of 93.6 °C, a log10 vapour pressure (mmHg) of 1.77 and a melting point of -120 °C. Take `OCCOCCO`: the boiling point came out at 246 °C, the log10 vapour pressure (mmHg) is -2.24, the melting point was -10.4 °C and the ready biodegradability result was “readily biodegradable”. As for `CCCCCCCC(=O)OCCCCC`, the boiling point came to 260 °C and the melting point was -34.8 °C.

Turning to `CCOP(=O)(OCC)Oc1ccc([N+](=O)[O-])cc1`, the log10 vapour pressure (mmHg) was -5.96 and the melting point amounted to 300 °C.

Broadly, the logP is the decadic logarithm of the partition coefficient of the neutral form, usually between octanol and water. Lower therefore signals lower lipophilicity. The term boiling point denotes the temperature at which the vapour pressure of the liquid equals the pressure above it. For orientation: melting point means the temperature of the solid-liquid transition.
